Experimental data: patent publication US20170143712A1, “Methods of Treating Cancers, Immune and Autoimmune Diseases, and Inflammatory Diseases Based on BTK Occupancy and BTK Resynthesis Rate” (Acerta Pharma B.V., priority 2014, published 2017)

Experiments:
[1] = system: established type II collagen-induced arthritis (CIA) in DBA/1 mice; assay: 14-day mouse established type II collagen-induced arthritis (CIA), PO QD (Example 10); format: in vivo; settings: for arthritis scores measured daily vs vehicle controls / disease-induced body weight loss (percent change from baseline) vs vehicle controls: p<0.05 on the days printed; for AUC (All Paws) - Corrected for Initial Score / Change in Body Weight (g) / Histopathology Summed Score Knees / Histopathology Summed Score Paws / Histopathology Summed Score Six-Joints / Paw Score AUC (All Paws): mean(SE); for spleen weights compared to vehicle controls: all dose groups PO QD
Protocol: Prior to dosing, the candidate anti-inflammatory agents were reconstituted either by vortexing or stirring. The candidate anti-inflammatory agents were administered to the DBA/1 mice daily (QD) by the oral (PO) route.
Immunization with heterologous type II collagen (CII) induces arthritis in mice of the DBA/1 strain, which is genetically susceptible to this disease. To develop an experimental model of autoimmunity more adequate for the study of human rheumatoid arthritis (RA), male DBA/1 mice were injected intradermally (ID) with bovine type II collagen to induce arthritis as reported by Trentham et al (Trentham D E, Townes A S, Kang A H Autoimmunity to type II collagen: an experimental model of arthritis. J. Exper. Med. 1977, 146:857-868) and Bendele A (Bendele A, Animal models of rheumatoid arthritis. J. Musculoskelet. Neuronal Interact. 2001, 1(4):377-85). Male DBA/1 mice (n=114) that were 6-7 weeks old and weighed approximately 18-27 grams (mean 22 g) at enrollment (arthritis day 1) were obtained from Taconic Farms, Inc. The male DBA/1 mice were at least 6 weeks old at time of first immunization and were housed 3-5/cage in shoe-box polycarbonate cages with wire tops, wood chip bedding, and suspended food and water bottles. These animals were identified by a distinct number of ink marks at the base of the tail delineating animal number. After enrollment, all cages were labeled with protocol number, group number, and animal numbers.
The male DBA/1 (n=10/group for arthritis) were anaesthetized with Isoflurane, shaved at the base of the tail, and injected intradermally with 150 μL of Freund's Complete Adjuvant (Difco, Detroit, Mich.) containing bovine type II collagen (BBP, batch #7) (1 mg/ml) at the base of the tail on day 0 and again on day 21. […] Randomization was done after swelling was obviously established in at least one paw (score of 1) and attempts were made to ensure approximately equal mean scores of 0.5-1 across groups at the time of enrollment. […] The male DBA/1 mice were terminated on arthritis day 14 (3 hours post-dose).
Efficacy evaluation of the administered anti-inflammatory agents was based on animal body weights, clinical arthritis scores, arthritis scores expressed as area under the curve (AUC), and histopathology on fore paws, hind paws, and knees. Histopathology results were expressed as 4 paws, knees only, or 6 joints (knees included). Day 13 was used as the endpoint for analysis of body weight change since the male DBA/1 mice were fasted overnight prior to necropsy on day 14.

[2] = system: BCR signaling through BTK; assay: Anti-IgM induced CD86 and CD69 on splenocyte B cells of CIA mice; format: in vivo, mouse; settings: splenocytes 3 hr after last dosing on day 14
Protocol: (§1) FIG. 45 illustrates changes in a functional measure of BCR signalling through the CD86 marker. Mouse splenocytes were isolated from spleens from mice that were part of the mouse CIA study semi-therapeutic protocol, 3 hr after the last dosing on day 14 of the treatment and cryopreserved. After thawing, inhibition of anti-IgM-induced PD markers CD86 and CD69 on mouse splenocyte B cells were measured. Error bars represent the standard deviation for the 3 sets of splenocytes analyzed.
as §1, with “FIG. 46” for “FIG. 45”, “the CD69” for “the CD86”
Inhibition of the BCR signaling through BTK was evaluated by ex vivo stimulation of splenocytes using IgM and evaluation of CD86 and CD69 as functional responses of BCR stimulation.

[3] = system: MDA-MB-231 tumor cells; assay: Osteolytic bone lesions after intratibial MDA-MB-231 tumor inoculation in nude rats; format: in vivo, rat; parameters: mean visual lysis score: scale not given here; mean left tibial density: unit not given here; settings: zoledronate group (Group 2)
Protocol: FIG. 40A, FIG. 40B, FIG. 40C, FIG. 40D, FIG. 40E, FIG. 40F, and FIG. 40G illustrate the bone density in hind limbs of nude rats (n=6 per group) implanted with intratibial MDA-MB231 tumor […] and treated for up to 41 days with vehicle control, zoledronate (active control) or varying doses of Formula (II). Oral gavage administration of Formula (II) was scheduled as 3 days of initial QD dosing, followed by 30 days of BID dosing at the following dose levels: 3/3, 30/30, and 180/90 mg/kg/day. An untreated group of rats, without tibial implants (n=3) represents bone density of concurrently obtained normal rat tibial images. Statistical significance was determined by two-way ANOVA-Dunnett: ns=not significant, *=P<0.05, **=P<0.01, ***=P<0.001, versus Group 1.
Rats were inoculated with MDA-MB-231 tumor cells on Day 1, baseline radiographs were taken on Day 2, and treatment with Formula (II) began on Day 8. Radiographs were taken on Days 10, 17, 24, 31, 38, and 41. Anti-osteolytic activities were determined from differences in bone density and visual lysis scores between the drug-treated and vehicle-treated groups on each observation day, and also from changes in bone density and visual lysis scores in tumor-inoculated left tibias at baseline (Day 2) compared to Days 10, 17, 24,31, 38, and 41.
Radiographs were blinded for both analyses. […] Visual osteolysis was not detected in any rat in the nave group. The 4% increase in mean bone density from baseline to study end presumably reflected normal growth in these rats.

[4] = 5 mg/kg PO QD, prophylactic paws
[5] = 5 mg/kg PO QD, prophylactic paws only
[6] = 5 mg/kg PO QD, therapeutic paws only

Compound	six-joint histopathology, reduction of summed scores vs vehicle controls ([1]; 5 mg/kg PO QD) [%]	Clinical arthritis scores AUC, reduction vs vehicle controls ([1]; 5 mg/kg PO QD, all paws) [%]	Clinical arthritis scores AUC, reduction when corrected for initial enrollment score ([1]; 5 mg/kg PO QD, all paws) [%]	arthritis scores measured daily vs vehicle controls ([1]; 5 mg/kg PO QD, all paws)	AUC (All Paws) - Corrected for Initial Score ([1]; 5 mg/kg PO QD)	Change in Body Weight (g) ([1]; 5 mg/kg PO QD)	Histopathology Summed Score Knees ([1]; 5 mg/kg PO QD)	Histopathology Summed Score Paws ([1]; 5 mg/kg PO QD)	Histopathology Summed Score Six-Joints ([1]; 5 mg/kg PO QD)	Paw Score AUC (All Paws) ([1]; 5 mg/kg PO QD)	disease-induced body weight loss (percent change from baseline) vs vehicle controls ([1]; 5 mg/kg PO QD)	daily arthritis scores vs vehicle controls [1, 4]	Clinical arthritis scores AUC, reduction vs vehicle controls [1, 5] [%]	spleen weights compared to vehicle controls [1]	BCR-mediated signaling (anti-IgM induced CD86 and CD69) [2]	further results
CC#CC(=O)N1CCOC[C@H]1c1nc(-c2ccc(C(=O)Nc3ccccn3)cc2)c2c(N)nccn12 [(R)-4-(8-amino-3-(4-(but-2-ynoyl)morpholin-3-yl)imidazo[1,5-a]pyrazin-1-yl)-N-(pyridin-2-yl)benzamide]	75	74	90	significantly reduced toward normal	*3.43(2.22)	−0.04(0.92) g	*2.65(0.79)	4.24(1.07)	*3.71(0.87)	*10.58(2.95)	significantly inhibited toward normal	significantly reduced toward normal	95	not significantly affected	dose-responsive decreases in BCR-mediated signaling	
CC#CC(=O)N1CC[C@@H](n2c(=O)n(-c3ccc(Oc4ccccc4)cc3)c3c(N)ncnc32)C1 [Formula (XXI), 6-amino-9-[(3R)-1-(2-butynoyl)-3-pyrrolidinyl]-7-(4-phenoxyphenyl)-7,9-dihydro-8H-purin-8-one]	85	86	104	significantly reduced toward normal	*−1.33(1.48)	*0.89(0.71) g	*3.48(1.17)	*1.46(0.47)	*2.13(0.66)	*5.83(1.53)	significantly inhibited toward normal	significantly reduced toward normal	100	not significantly affected	dose-responsive decreases in BCR-mediated signaling	six-joint histopathology, reduction of summed scores vs vehicle controls ([1]; 1 mg/kg PO QD): 73%; total body weight loss from enrollment to study termination ([1]; 1 mg/kg PO QD): significantly inhibited; Clinical arthritis scores AUC, reduction vs vehicle controls ([1]; 1 mg/kg PO QD, all paws): 65%; Clinical arthritis scores AUC, reduction when corrected for initial enrollment score ([1]; 1 mg/kg PO QD, all paws): 79%; arthritis scores measured daily vs vehicle controls ([1]; 1 mg/kg PO QD, all paws): significantly reduced toward normal; AUC (All Paws) - Corrected for Initial Score ([1]; 1 mg/kg PO QD): 7.28(3.26); Change in Body Weight (g) ([1]; 1 mg/kg PO QD): *0.33(0.82) g; Histopathology Summed Score Knees ([1]; 1 mg/kg PO QD): *3.45(1.22); Histopathology Summed Score Paws ([1]; 1 mg/kg PO QD): *4.14(1.27); Histopathology Summed Score Six-Joints ([1]; 1 mg/kg PO QD): *3.91(1.13); Paw Score AUC (All Paws) ([1]; 1 mg/kg PO QD): *14.43(4.11); disease-induced body weight loss (percent change from baseline) vs vehicle controls ([1]; 1 mg/kg PO QD): significantly inhibited toward normal; daily arthritis scores vs vehicle controls ([1]; 1 mg/kg PO QD, prophylactic paws): significantly reduced toward normal; Clinical arthritis scores AUC, reduction vs vehicle controls ([1]; 1 mg/kg PO QD, prophylactic paws only): 99%; total body weight loss from enrollment to study termination ([1]; 5 mg/kg PO QD): significantly inhibited; daily arthritis scores vs vehicle controls ([1]; 5 mg/kg PO QD, therapeutic paws): significantly reduced toward normal; Clinical arthritis scores AUC, reduction vs vehicle controls [1, 6]: 66%; Clinical arthritis scores AUC, reduction when corrected for initial enrollment score [1, 6]: 113%
O=P(O)(O)C(O)(Cn1ccnc1)P(=O)(O)O [zoledronate, reference compound]																mean left tibial density ([3]; Day 2 baseline): 200.0±1.6; increase in mean left tibial density ([3]; Day 2 to Days 31 and 41): 4-6%; mean left tibial density ([3]; Day 31): 207.8±1.6; mean left tibial density ([3]; Day 41): 211.2±1.6; mean visual lysis score ([3]; Days 31 and 41 each): 0.7
